Test results reported in US20220062383A1, “REGULATION OF A FOREIGN BODY RESPONSE” (THE JOHNS HOPKINS UNIVERSITY, priority 2019, published 2022).

What was measured:
[1] = tested on: foreign body response to PCL implants (volumetric muscle loss model); experiment: qRT-PCR gene expression in tissue of PCL-implanted mice after IL17A/F NAb and/or senolytic treatment; type: in vivo, C57BL/6 mice; conditions: PCL implant
Description: All animal procedures were performed in accordance with an approved JHU IACUC protocol. Female mice were aged six to eight weeks-old. Several strains were utilized, including wild type C57BL/6j (Jackson Laboratories, Stock #00064), Rag2/OT-II (Taconic Stock #11490), IL17A-/- and IL17RA-/- (courtesy of Dr. Yoichiro Iwakura, University of Tokyo, Tokyo, Japan and Dr. Tomas Mustelin, Amgen, Seattle, respectively). Defects in muscle for material implantation were created as previously described (68). The resulting bilateral muscle defects were filled with 30 mg of a synthetic material. Synthetic materials tested include PCL (particulate, Mn=50000 g/mol, mean particle size<600 μm, Polysciences), ultrahigh molecular weight PE (particulate, Mn=5000 k g/mol, mean particle size=150 μm, Goodfellow), medical graded Silicone (sheet, Summit Medical), PEG hydrogels. PEG hydrogels were made with polyethylene glycol-diacrylate (PEG-DA, Mn=3400). PEG-DA (Polysciences) in PBS at 10% w/v concentration was mixed with photoinitiator (Irgacure 2959 solubilized to 10% w/v in 70% ethanol) to a final concentration of 0.05%. A 50 μL volume solution was cast onto each well of a flat bottom 96 wells plate. The solution was photocrosslinked via UV light for 30 mins to form a hydrogel sheet. Both silicone and PEG hydrogels were morselized into particles with a scalpel and placed into the defect. Control implants were injected with 50 μL of PBS (as a no implant control). All materials were UV sterilized prior to use. Directly after surgery, mice were given subcutaneous carprofen (Rimadyl®, Zoetis) at 5 mg/kg for pain relief. Mice were euthanized, and their implants were extracted at different time points: 1, 3, 6, or 12-weeks post-surgery. Additional modes of implantation were subcutaneous and intra-muscular injection. Briefly, synthetic materials were implanted subcutaneously (30 mg) on both flanks of the mice, or injected directly into the quadricep muscles through a 16 G syringe (5 mg of materials). Total RNA was isolated from whole tissue using TRIzol reagent and Qiagen's RNeasy kits. qRT-PCR was performed using Power SYBR Green Master Mix (Applied Biosystems) or TaqMan Gene Expression Master Mix (Applied Biosystems) according to manufacturer's instructions. Briefly, 2 μg of total RNA was used to synthesize cDNA using Superscript IV VILO Master Mix (ThermoFisher Scientific). The cDNA concentration was set to 50 ng/well (in a total volume of 20 μL PCR reaction). The qRT-PCR reactions were performed on the StepOne Plus Real-Time PCR System (ThermoFisher Scientific) using manufacturer recommended settings for quantitative and relative expression. Mice received 100 μl intraperitoneal (IP) injections of anti-IL17A (100 μg/ml, Cat #P13705.15) and anti-IL17F (100 μg/ml, Cat #P56220.17) (provided by Amgen) or isotype control (rat IgG2a, ThermoFisher Scientific, Cat #02-9688) every other day for a week. IL6 blocking antibody was administrated at 100 μg/ml (BioXCell, clone MP5-20F3) per mouse per day for 5 consecutive days. For senolytic treatment, mice received IP and intramuscular (IM) injections of Navitoclax (100 mg/kg, Selleckchem, Cat #HY-10087) for 5 consecutive days or vehicle control (5% DMSO, 3% Tween 80 in PBS). Co-administration of anti-I[…] and senolytic treatment were also evaluated. All mice received treatments at 4-weeks post-surgery for a total of 5 injections (1 injection per day per mouse), and were harvested in the following 2 weeks. The nCounter differential gene expression system was used to assess readable transcripts via the nanoString PanCancer Immune Profiling Panel. We utilized the nSolver software (version 3.0, nanoString Technologies, Inc.). All analyses of qRT-PCR data utilized the Livak Method, wherein ΔΔCt values are calculated, and then reported as relative quantification values calculated by […] (69). Treatment data points are normalized to either healthy or saline treated controls. β2M was utilized as the reference gene. […]

[2] = tested on: fibrosis around PCL implants (volumetric muscle loss model); experiment: Histology and immunofluorescence (αSMA, picrosirius red) of fibrosis around PCL implants after treatment; type: in vivo, C57BL/6 mice; conditions: PCL implant; treatment 4 weeks after implantation; tissue at 6 weeks; vs isotype or vehicle control
Description: All animal procedures were performed in accordance with an approved JHU IACUC protocol. Female mice were aged six to eight weeks-old. Several strains were utilized, including wild type C57BL/6j (Jackson Laboratories, Stock #00064), Rag2/OT-II (Taconic Stock #11490), IL17A-/- and IL17RA-/- (courtesy of Dr. Yoichiro Iwakura, University of Tokyo, Tokyo, Japan and Dr. Tomas Mustelin, Amgen, Seattle, respectively). Defects in muscle for material implantation were created as previously described (68). The resulting bilateral muscle defects were filled with 30 mg of a synthetic material. Synthetic materials tested include PCL (particulate, Mn=50000 g/mol, mean particle size<600 μm, Polysciences), ultrahigh molecular weight PE (particulate, Mn=5000 k g/mol, mean particle size=150 μm, Goodfellow), medical graded Silicone (sheet, Summit Medical), PEG hydrogels. PEG hydrogels were made with polyethylene glycol-diacrylate (PEG-DA, Mn=3400). PEG-DA (Polysciences) in PBS at 10% w/v concentration was mixed with photoinitiator (Irgacure 2959 solubilized to 10% w/v in 70% ethanol) to a final concentration of 0.05%. A 50 μL volume solution was cast onto each well of a flat bottom 96 wells plate. The solution was photocrosslinked via UV light for 30 mins to form a hydrogel sheet. […] Co-administration of anti-I[…] and senolytic treatment were also evaluated. […]

[3] = treatment 4 weeks after implantation, tissue at 6 weeks
[4] = treatment at 4 weeks, 6 weeks after implantation

CC1(C)CCC(c2ccc(Cl)cc2)=C(CN2CCN(c3ccc(C(=O)NS(=O)(=O)c4ccc(N[C@H](CCN5CCOCC5)CSc5ccccc5)c(S(=O)(=O)C(F)(F)F)c4)cc3)CC2)C1 [Navi, Navitoclax] was tested, and the “p16INK4a gene expression (senolysis)” value ([1]; one week after treatment, 6 weeks after implantation, p<0.0001) was “significantly decreased”, the “Il17a (IL17) gene expression” value ([1]; treatment 4 weeks after implantation, 5 injections, tissue at 6 weeks, vs isotype or vehicle control) was “decreased” and the “Collagen I gene expression” value [1, 3] was “decreased”. The Tgfβ gene expression [1, 3] was “decreased”, the Il16 gene expression [1, 4] was “decreased” and the S100a4 gene expression [1, 4] was “decreased”. For the same molecule, the “collagen III gene expression” value [1, 4] was “decreased” and the αSMA immunofluorescence [2] was “reduced”.
